3 molecules from ChEMBL document CHEMBL1221178, “Allosteric control of an ionotropic glutamate receptor with an optical switch” (Nat Chem Biol, 2006) can be followed below.

Holding throughout (type): functional, cell-based
The subject of assay [1] is Glutamate receptor ionotropic, kainate 2 (Homo sapiens), Q13002 [L439C]. Briefly: Agonist activity at iGluR6 L439C mutant expressed in human HEK293 cells assessed as increase in intracellular Ca2+ levels illuminated at 380 nm wavelength by […] staining based fluorimetric method.
Assay [2] shares this test system. Briefly: Agonist activity at iGluR6 L439C mutant expressed in human HEK293 cells assessed as increase in intracellular Ca2+ levels illuminated at 500 nm wavelength by […] staining based fluorimetric method.
Assay [3] has the same test system. Briefly: Agonist activity at MAG conjugated light activated iGluR6 L439C mutant expressed in human HEK293 cells assessed as increase inward currents by whole cell patch clamp method.

Molecules are shown by their SMILES. Activity calls are given as the source filed them. The calls are words filed in the database; no cut-off is given here.

Sequence of Glutamate receptor ionotropic, kainate 2 (Homo sapiens), Q13002 [L439C] (Q13002 whole entry L439C): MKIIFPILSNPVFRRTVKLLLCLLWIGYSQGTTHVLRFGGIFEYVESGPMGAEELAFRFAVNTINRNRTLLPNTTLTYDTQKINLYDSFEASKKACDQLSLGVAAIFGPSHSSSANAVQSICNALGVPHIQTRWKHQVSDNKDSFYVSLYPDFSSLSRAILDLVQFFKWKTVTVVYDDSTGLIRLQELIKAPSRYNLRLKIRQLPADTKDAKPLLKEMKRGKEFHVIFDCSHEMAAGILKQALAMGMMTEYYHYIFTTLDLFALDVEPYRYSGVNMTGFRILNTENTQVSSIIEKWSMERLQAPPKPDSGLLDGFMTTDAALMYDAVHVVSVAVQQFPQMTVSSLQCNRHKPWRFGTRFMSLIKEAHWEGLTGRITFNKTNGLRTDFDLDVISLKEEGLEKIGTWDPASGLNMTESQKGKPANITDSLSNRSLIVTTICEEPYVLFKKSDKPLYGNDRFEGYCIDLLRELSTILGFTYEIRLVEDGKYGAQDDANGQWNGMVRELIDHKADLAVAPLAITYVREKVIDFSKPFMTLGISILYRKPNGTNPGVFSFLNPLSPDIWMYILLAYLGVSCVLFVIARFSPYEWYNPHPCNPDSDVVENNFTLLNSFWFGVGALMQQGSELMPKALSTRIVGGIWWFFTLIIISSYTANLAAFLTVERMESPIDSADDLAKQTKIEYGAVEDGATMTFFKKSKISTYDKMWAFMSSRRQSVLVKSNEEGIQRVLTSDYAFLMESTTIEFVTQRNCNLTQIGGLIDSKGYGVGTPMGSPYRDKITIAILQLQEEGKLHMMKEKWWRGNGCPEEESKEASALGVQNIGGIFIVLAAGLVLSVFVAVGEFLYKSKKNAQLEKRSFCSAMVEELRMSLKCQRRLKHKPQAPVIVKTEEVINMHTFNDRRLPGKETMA

For the molecule `N[C@@H](C[C@@H](CCCC(=O)NCC(=O)Nc1ccc(/N=N/c2ccc(NC(=O)CN3C(=O)C=CC3=O)cc2)cc1)C(=O)O)C(=O)O`, the result in assay [1] was Active. Also, the result in assay [2] was inactive. Turning to `N[C@@H](CCC(=O)O)C(=O)O`, in assay [3], the outcome was Active. In the case of `N[C@@H](C[C@@H](CCCC(=O)NCC(=O)Nc1ccccc1)C(=O)O)C(=O)O`, the result in assay [3] was Active.
